Consider seven molecules from patent US20250114345A1, “COMPOUNDS AND COMPOSITIONS AS CBP/P300 DEGRADERS AND USES THEREOF” (Oncopia Therapeutics, Inc. d/b/a/ SK Life Science Labs, priority 2023, published 2025).

This assay concerns the target T1, p300 (Homo sapiens, UniProt Q09472).
T1 construct: host or cells: A549 P300 HiBit cells
As to the kind of experiment: P300 degradation, HiBit technology in A549 P300 HiBit cells (2 h). The conditions noted are these: 2 hrs post treatment; for Dmax: A549, A549 P300 HiBit cells; for DC50: A549 P300 HiBit cells. It is filed as cell-based. Put shortly: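 Degradation potency and Dmax came from HiBiT luminescence in tagged A549 cells treated with serially diluted compound (DMSO stocks at 10 mM) after overnight equilibration in F-12K with 10% heat-inactivated FBS.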
(The HiBiT peptide binds its large partner to form an active luciferase.)

T1 sequence (Q09472 whole entry): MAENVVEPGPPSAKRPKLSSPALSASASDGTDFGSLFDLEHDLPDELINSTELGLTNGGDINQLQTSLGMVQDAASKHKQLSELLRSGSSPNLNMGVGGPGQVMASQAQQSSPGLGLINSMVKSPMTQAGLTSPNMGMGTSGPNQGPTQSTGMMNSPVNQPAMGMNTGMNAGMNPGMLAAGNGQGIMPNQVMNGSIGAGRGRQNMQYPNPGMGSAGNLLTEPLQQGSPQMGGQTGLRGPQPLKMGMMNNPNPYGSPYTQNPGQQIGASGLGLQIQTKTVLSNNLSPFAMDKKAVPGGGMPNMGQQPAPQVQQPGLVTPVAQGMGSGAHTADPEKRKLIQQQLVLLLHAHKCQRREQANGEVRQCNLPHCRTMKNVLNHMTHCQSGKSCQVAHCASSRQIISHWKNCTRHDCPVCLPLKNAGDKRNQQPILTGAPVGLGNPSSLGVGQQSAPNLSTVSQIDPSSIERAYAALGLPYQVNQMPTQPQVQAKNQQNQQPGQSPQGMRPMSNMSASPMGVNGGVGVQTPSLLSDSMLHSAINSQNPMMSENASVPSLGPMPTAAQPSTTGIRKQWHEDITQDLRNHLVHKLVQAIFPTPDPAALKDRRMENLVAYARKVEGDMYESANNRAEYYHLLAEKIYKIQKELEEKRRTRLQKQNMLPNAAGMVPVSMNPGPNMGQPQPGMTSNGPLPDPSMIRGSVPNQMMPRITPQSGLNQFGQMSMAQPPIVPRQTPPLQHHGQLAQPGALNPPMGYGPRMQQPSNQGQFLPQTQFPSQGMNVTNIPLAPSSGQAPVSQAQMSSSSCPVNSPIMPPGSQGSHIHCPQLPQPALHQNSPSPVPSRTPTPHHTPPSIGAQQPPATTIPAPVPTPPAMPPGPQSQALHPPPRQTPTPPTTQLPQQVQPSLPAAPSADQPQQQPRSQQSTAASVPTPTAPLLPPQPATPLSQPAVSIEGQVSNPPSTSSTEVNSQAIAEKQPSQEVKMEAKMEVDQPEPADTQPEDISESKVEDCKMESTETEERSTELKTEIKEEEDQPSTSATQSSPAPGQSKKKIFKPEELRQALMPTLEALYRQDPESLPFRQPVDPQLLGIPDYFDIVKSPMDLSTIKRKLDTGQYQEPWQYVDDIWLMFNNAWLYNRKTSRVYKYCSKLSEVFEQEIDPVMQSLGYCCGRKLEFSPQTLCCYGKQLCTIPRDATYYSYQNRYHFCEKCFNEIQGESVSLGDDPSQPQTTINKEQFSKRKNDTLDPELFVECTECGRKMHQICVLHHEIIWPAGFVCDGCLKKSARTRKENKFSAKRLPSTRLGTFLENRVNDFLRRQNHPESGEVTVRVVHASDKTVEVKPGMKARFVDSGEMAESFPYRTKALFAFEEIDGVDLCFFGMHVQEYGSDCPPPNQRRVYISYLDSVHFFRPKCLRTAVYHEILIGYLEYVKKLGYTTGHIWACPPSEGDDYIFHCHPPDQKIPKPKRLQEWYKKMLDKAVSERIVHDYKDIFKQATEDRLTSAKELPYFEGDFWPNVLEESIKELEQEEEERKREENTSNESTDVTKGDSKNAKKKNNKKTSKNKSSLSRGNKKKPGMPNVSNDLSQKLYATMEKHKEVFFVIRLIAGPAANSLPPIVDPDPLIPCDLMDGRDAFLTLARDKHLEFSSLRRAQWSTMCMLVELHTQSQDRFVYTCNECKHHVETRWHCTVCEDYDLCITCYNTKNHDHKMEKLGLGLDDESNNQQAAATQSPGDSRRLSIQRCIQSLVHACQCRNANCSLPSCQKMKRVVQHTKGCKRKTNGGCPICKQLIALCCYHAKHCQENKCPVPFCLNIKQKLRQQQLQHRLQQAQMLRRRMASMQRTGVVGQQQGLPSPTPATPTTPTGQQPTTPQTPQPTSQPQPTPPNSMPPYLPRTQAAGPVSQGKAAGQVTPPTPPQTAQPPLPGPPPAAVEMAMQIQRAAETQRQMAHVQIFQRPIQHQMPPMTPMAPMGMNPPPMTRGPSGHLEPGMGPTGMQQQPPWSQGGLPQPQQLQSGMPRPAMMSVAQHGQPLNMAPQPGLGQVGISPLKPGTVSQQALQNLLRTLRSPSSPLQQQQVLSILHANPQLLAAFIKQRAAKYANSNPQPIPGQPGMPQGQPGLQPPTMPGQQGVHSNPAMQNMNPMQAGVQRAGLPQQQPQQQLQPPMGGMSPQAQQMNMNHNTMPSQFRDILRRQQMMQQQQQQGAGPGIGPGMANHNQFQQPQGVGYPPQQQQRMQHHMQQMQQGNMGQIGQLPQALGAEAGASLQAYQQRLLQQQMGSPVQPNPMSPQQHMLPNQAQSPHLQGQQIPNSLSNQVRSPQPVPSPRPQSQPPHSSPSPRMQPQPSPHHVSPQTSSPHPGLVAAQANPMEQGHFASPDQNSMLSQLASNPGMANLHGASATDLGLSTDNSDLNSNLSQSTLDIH

Take `Cc1cc(-c2ncc3c(n2)OCCN3c2cc(C)c3c(c2)n(C)c(=O)n3C)cnc1C(=O)NCC#Cc1cc2c(C3CCC(=O)NC3=O)cccc2o1` (centres unmarked) [Example A241, N-(3-(4-(2,6-dioxo-piperidin-3-yl)benzofuran-2-yl)prop-2-yn-1-yl)-3-methyl-5-(5-(1,3,7-trimethyl-2-oxo-2,3-dihydro-1H-benzo [d]imidazol-5-yl)-6,7-dihydro-5H-pyrimido [4,5-b][1,4]oxazin-2-yl)picolinamide]: the Dmax (in general, the largest share of the target that was removed) is more than 80% and the DC50 (as a rule, the midpoint of the concentration-degradation curve) was 1 to 9.9 nM.
The corresponding values for `CN1CCN(c2ccc3c(c2)n(C)c(=O)n3C)c2cc(C(F)(F)F)c(-c3ccc(C(=O)NCC#Cc4cc5c(C6CCC(=O)NC6=O)cccc5o4)nc3)cc21` (centres unmarked) [Example A242, 5-(1-(1,3-dimethyl-2-oxo-2,3-dihydro-1H-benzo[d]imidazol-5-yl)-4-methyl-7-(trifluoromethyl)-1,2,3,4-tetrahydroquinoxalin-6-yl)-N-(3-(4-(2,6-dioxopiperidin-3-yl)benzofuran-2-yl)prop-2-yn-1-yl)picolinamide] are more than 80% and 1 to 9.9 nM.
The corresponding values for `Cc1cc(-c2cc(F)c(Nc3cc(C4CCOCC4)c4c(c3)n(C)c(=O)n4C)cc2C(F)(F)F)cnc1C(=O)NCC#Cc1cc2c(C3CCC(=O)NC3=O)cccc2o1` (centres unmarked) [Example A244, 5-(4-((1,3-dimethyl-2-oxo-7-(tetrahydro-2H-pyran-4-yl)-2,3-dihydro-1H-benzo[d]imidazol-5-yl)amino)-5-fluoro-2-(trifluoromethyl)phenyl)-N-(3-(4-(2,6-dioxopiperidin-3-yl)benzofuran-2-yl)prop-2-yn-1-yl)-3-methylpicolinamide] are 40 to 59% and 10 to 99 nM.
Take `CN1CCN(c2ccc3c(c2)n(C)c(=O)n3C)c2cnc(-c3ccc(C(=O)NCC#Cc4cc5c(C6CCC(=O)NC6=O)nccc5o4)nc3)nc21` (centres unmarked) [Example A245, 5-(5-(1,3-dimethyl-2-oxo-2,3-dihydro-1H-benzo[d]imidazol-5-yl)-8-methyl-5,6,7,8-tetrahydropteridin-2-yl)-N-(3-(4-(2,6-dioxopiperidin-3-yl)furo[3,2-c]pyridin-2-yl)prop-2-yn-1-yl) picolinamide]: the greatest degradation seen (Dmax) is more than 80% and the 50% degradation concentration (DC50) is less than 1 nM.
On the same counts, the results for `Cn1c(=O)n(C)c2cc(N3CCOc4nc(-c5ccc(C(=O)NCC#Cc6ccn7ncc(C8CCC(=O)NC8=O)c7c6)nc5)ncc43)ccc21` (centres unmarked) [Example A246, 5-(5-(1,3-dimethyl-2-oxo-2,3-dihydro-1H-benzo[d]imidazol-5-yl)-6,7-dihydro-5H-pyrimido[4,5-b][1,4]oxazin-2-yl)-N-(3-(3-(2,6-dioxopiperidin-3-yl)pyrazolo[1,5-a]pyridin-5-yl)prop-2-yn-1-yl)picolinamide] are 40 to 59% and 1 to 9.9 nM.
The corresponding values for `CC(C)c1cc(-c2cccc3cc(-c4ccc(C(=O)NCC#Cc5cnc6c(c5)N(C5CCC(=O)NC5=O)CC6)nc4)ncc23)cc2c1n(C)c(=O)n2C` (centres unmarked) [Example A249, N-(3-(1-(2,6-dioxo-piperidin-3-yl)-2,3-dihydro-1H-pyrrolo [3,2-b]pyridin-6-yl)prop-2-yn-1-yl)-5-(8-(7-isopropyl-1,3-dimethyl-2-oxo-2,3-dihydro-1H-benzo[d]imidazol-5-yl)isoquinolin-3-yl)picolinamide] are 20 to 39% and 10 to 99 nM.
The corresponding values for `Cc1cc(-c2ncc3c(n2)OCCN3c2cc(C3CCOCC3)c3c(c2)n(C)c(=O)n3C)cnc1C(=O)NCC#Cc1cc2c(C3CCC(=O)NC3=O)cccc2o1` (centres unmarked) [Example A252, 5-(5-(1,3-dimethyl-2-oxo-7-(tetrahydro-2H-pyran-4-yl)-2,3-dihydro-1H-benzo[d]imidazol-5-yl)-6,7-dihydro-5H-pyrimido[4,5-b][1,4]oxazin-2-yl)-N-(3-(4-(2,6-dioxopiperidin-3-yl)benzofuran-2-yl)prop-2-yn-1-yl)-3-methylpicolinamide] are more than 80% and 1 to 9.9 nM.
